In brackets after ≈: the same amount, converted by molar mass.
details: buffer; pH 7.4; 200.0 µM

Structure (SMILES) | solubility kinetic [µg/mL]
O=C(Nc1ccc(Oc2cccc(C(F)(F)F)c2)nc1)c1ccco1 | 1.2 (≈ 3.45 µM)
CN(C)c1ccc(C2NC(=O)c3ccccc3N2)cc1 (stereo unspecified) | 8.8 (≈ 32.9 µM)
O=C1CCC([N+](=O)[O-])C(C2CC=CCC2)N1 (stereo unspecified) | > 33.6
CN=C(C)/C(C(=O)OC)=C(/O)c1ccccc1F | 32.3 (≈ 129 µM)
CCn1cc(CCC(=O)NCCN2CCOCC2)c2ccccc21 | 48.9 (≈ 148 µM)
Cc1onc(-c2ccccc2)c1C(=O)NCc1ccc(Cl)cc1 | 1.3 (≈ 3.98 µM)
CCOc1ccc(N(C(C)C(=O)N2CCCC2)S(C)(=O)=O)cc1 (stereo unspecified) | > 51.1
O=C(CSc1nc2ccccc2c(=O)n1CCCN1CCOCC1)Nc1ccc(F)c(Cl)c1 | 18.5 (≈ 37.7 µM)
COCCN(CC(=O)Nc1cccc(C)c1C)C(=O)C1(c2ccccc2)CC1 | > 57.1
CC(NCc1cccc(S(=O)(=O)N(C)C)c1)c1ccc(F)cc1 (stereo unspecified) | 37.1 (≈ 110 µM)
COc1cc(OC)c(C(=O)NC23CC4CC(CC(C4)C2)C3)cc1OC | 7.1 (≈ 20.6 µM)
CCOC(=O)CC1COCCN1Cc1cn(C)nc1-c1ccccc1F (stereo unspecified) | > 54.2
CCN(CC)S(=O)(=O)c1ccc(O)c(C(=O)OCC(=O)NC23CC4CC(CC(C4)C2)C3)c1 | 25.5 (≈ 54.9 µM)
CC(C)(C)NC(=O)C1c2ccccc2Oc2ccccc21 | 1.7 (≈ 6.04 µM)
CC(C)(C)CC(=O)NCc1cccs1 | > 31.7
Clc1ccc(Cc2ccccn2)cc1 | 6.3 (≈ 30.9 µM)
Cc1ccc(Cl)cc1NC(=O)CON=C(N)c1ccccc1 | 32.4 (≈ 102 µM)
N#CN(Cc1ccccc1)Cc1ccccc1 | 18.6 (≈ 83.7 µM)
CCOc1ncccc1C(=O)NCc1ccccc1Cl | 33.1 (≈ 114 µM)
CCc1ccc(NC2=CC(=O)CC(C)(C)C2)cc1 | 16.1 (≈ 66.2 µM)
COC(=O)c1csc(S(=O)(=O)N2CCCCC2)c1OC | > 47.9
O=C(Nc1cc(S(=O)(=O)Nc2ccccc2F)ccc1Cl)c1ccc(F)cc1F | 2.5 (≈ 5.67 µM)
Cc1cc(NC(=O)c2cccc([N+](=O)[O-])c2)no1 | < 0.2
O=C(Oc1ccccc1N1CCOCC1)c1ccccc1 | 26.3 (≈ 92.8 µM)
CSc1ncccc1C(=O)OCC(=O)N1CCN(C(=O)c2ccco2)CC1 | > 58.4

Structure (SMILES) | solubility kinetic [µg/mL]
O=C(NCc1csc(-c2cccs2)n1)Nc1ccc(C(F)(F)F)cc1 | < 0.3
O=C(NCN1CCN(c2ccccc2)CC1)c1cnccn1 | > 44.6
Cc1ccccc1OCC(=O)NC1CCCCCCC1 | 4.2 (≈ 15.3 µM)
CC(Sc1nccn1C)C(=O)c1ccc(Br)cc1 (stereo unspecified) | 42.9 (≈ 132 µM)
O=C(NC1CCCC1)C(=O)c1c[nH]c2ccccc12 | 12.1 (≈ 47.2 µM)
CCc1ncc(C)nc1CC | 6.7 (≈ 44.6 µM)
COc1cccc(NC(=O)CSc2nc(C3CC3)nc3ccccc23)c1 | < 0.3
Cc1ccccc1NC1(C#N)CCCCC1 | 3.6 (≈ 16.8 µM)
CCN(CC)c1ccc(NC(=O)c2ccc(S(=O)(=O)N3CCOCC3)cc2)cc1 | 4.7 (≈ 11.3 µM)
c1ccc2nc(-c3ccc(-n4ccnc4)cc3)ccc2c1 | 6.2 (≈ 22.9 µM)
Cc1ccc(C(=O)NC(C(=O)NC2CCCC2)c2ccccc2)cc1 (stereo unspecified) | 4.1 (≈ 12.2 µM)
CNS(=O)(=O)c1ccc(NS(=O)(=O)c2ccccc2F)cc1 | 51 (≈ 148 µM)
CC(C)(C)/C(COc1ccccc1[N+](=O)[O-])=N/O | 20.6 (≈ 81.7 µM)
O=C(NC(=S)NC12CC3CC(CC(C3)C1)C2)c1ccc(F)cc1 | 2.3 (≈ 6.92 µM)
COc1ccc(NC(=O)COCC(=O)Nc2ccc(C)cc2)cc1 | 44.3 (≈ 135 µM)
C=C(C)[C@@H]1CC=C(CN2CCN(Cc3ccccc3)CC2)CC1 | 9.9 (≈ 31.9 µM)
O=[N+]([O-])c1ccc(S(=O)(=O)Nc2ncccn2)cc1 | > 42
Cc1ccc(NC(=O)Cn2ccnc2)cc1C | 30.4 (≈ 133 µM)
Nc1ccccc1Sc1c[nH]c2ccccc12 | 27.8 (≈ 116 µM)
CCc1ccc(NC(=S)Nc2cccc3cnccc23)cc1 | 11.6 (≈ 37.7 µM)
COCCNC(=O)C(=O)Nc1ccc(Cl)cc1C | > 40.6
Cl.OC(COCc1ccccc1F)CN1CCCCC1 (stereo unspecified) | 44.1
O=c1c2c([nH]c3ccccc13)CCCCC2 | > 32
O=c1[nH]c(=S)n(C2CC2)c(O)c1C=NCCc1ccccc1 | < 0.2
O=C(O)C1C2C=CC(C2)C1C(=O)Nc1cccc(C(F)(F)F)c1 (stereo unspecified) | 10.3 (≈ 31.7 µM)

Structure (SMILES) | solubility kinetic [µg/mL]
O=[N+]([O-])c1ccccc1CN1CCN(Cc2ccc3ccccc3c2)CC1 | 3.9 (≈ 10.8 µM)
COc1ccc2nc(C)cc(Nc3ccc(N4CCN(C)CC4)cc3)c2c1 | > 54.4
O=C(O)CCCNc1ccc(S(=O)(=O)N2CCCCC2)cc1 | > 49
Cc1ccc(NC(=O)c2cc(C)nc3ccccc23)c(C)c1 | 27.1 (≈ 93.3 µM)
O=C(CCC(=O)OCC(=O)c1cccc([N+](=O)[O-])c1)NC1CCCCC1 | > 54.4
Nc1nc(NCCO)nc(NCc2ccccc2)c1[N+](=O)[O-] | 15.6 (≈ 51.3 µM)
CCn1ccnc1CN(C)Cc1nc(-c2ccccc2)no1 | 31.7 (≈ 107 µM)
Cc1ccc(-c2cc[n+](Cc3ccccc3)cc2)cc1.[Cl-] | > 44.4
CCOc1ccc(NC(=O)CCN2C(=O)c3cccc([N+](=O)[O-])c3C2=O)cc1 | 16.4 (≈ 42.8 µM)
Cc1ccc(CC2SC(N=C(N)N)=NC2=O)cc1 (stereo unspecified) | > 39.3
COc1cc2[nH]c(C(=O)N(C)Cc3ccccc3)cc2c(OC)c1OC | 35.7 (≈ 101 µM)
CCN(CC)CC(=O)NCC1(c2ccccc2)CCCC1 | 40.9 (≈ 142 µM)
CSCCOC(=O)C1=C(C)NC(=O)NC1c1ccc2c(c1)OCO2 (stereo unspecified) | > 52.6
CCOc1cc(C(=O)NC)cc(Br)c1OC | > 43.2
CC1CCCC(NC(=O)CN2C(=O)NC(Cc3c[nH]c4ccccc34)C2=O)C1C (stereo unspecified) | > 59.5
Cc1ccc(CN2CCN(c3ccccc3Cl)CC2)o1 | 10 (≈ 34.4 µM)
COc1ccc(C(=O)Nc2nc3ccccc3[nH]2)cc1 | 4.1 (≈ 15.3 µM)
Cc1ccc(-c2nc3ncccc3o2)cc1NC(=O)c1ccc([N+](=O)[O-])o1 | 1.7 (≈ 4.67 µM)
COc1cc(/C=C/C(=O)NCC2CCCCC2)cc(OC)c1OC | < 0.7
CCCSc1nc2sc3c(c2c(=O)n1CC)CC(C)(C)OC3 | < 0.4
Cc1ccc(OCC(=O)NC(=S)Nc2ccc(Br)cn2)cc1 | 0.5 (≈ 1.31 µM)
CCN(CC)CCSc1nc2ccc(OC)cc2[nH]1.Cl | > 52.8
CC(=O)N1CCC(C(=O)Nc2cc(C)cc(C)c2)CC1 | > 41.2
CC(=O)C(Cc1ccc(Cl)nc1)Cc1ccc(Cl)nc1 | 44.9 (≈ 145 µM)
O=C1CCc2cc(S(=O)(=O)Nc3ccccc3)cc3c2N1CC3 | > 49.3

Structure (SMILES) | solubility kinetic [µg/mL]
O=C(/C=C/c1cccc([N+](=O)[O-])c1)N1CCN(c2ccccn2)CC1 | 3.1 (≈ 9.16 µM)
COCCN(C(=S)Nc1ccc(C)cc1C)C(C)c1cccs1 (stereo unspecified) | 7.7 (≈ 22.1 µM)
CC(C(=O)Nc1cccc(C#N)c1)N(C)CCOc1ccccc1 (stereo unspecified) | 31.8 (≈ 98.3 µM)
Nc1cc(-c2ccccc2)n2c(n1)nc1ccccc12 | 5.7 (≈ 21.9 µM)
CC(=O)c1ccc(N=C2SCCCN2C(=O)C2CCCC2)cc1 | 47.5 (≈ 144 µM)
CCC(=O)N(Cc1cc(=O)[nH]c2ccccc12)c1ccc(C)cc1 | > 48.1
CCOC(=O)C1CCCN(C(=O)COc2ccc(C(=O)c3ccc(F)cc3)cc2)C1 (stereo unspecified) | > 62
COCc1c(C(=O)NCCc2ccc(OC(F)F)cc2)oc2ccccc12 | 13.5 (≈ 36 µM)
O=C(NCc1ccccn1)Nc1ccccc1C(F)(F)F | > 44.3
COc1ccc(CNCc2cccn2C)cc1.Cl | > 40
O=S(=O)(NCc1ccccc1)c1cccc2nsnc12 | 44.2 (≈ 145 µM)
Nc1ncn([C@@H]2O[C@H](CO)[C@@H](O)[C@H]2O)c(=O)n1 | > 36.6
CC(=O)c1ccc(-n2ccc(=O)cc2)cc1 | > 32
Cc1cc(C(=O)N(C)C2CCCCC2)no1 | > 33.3
O=C(NCCc1c[nH]c2ccccc12)c1cnccn1 | > 39.9
CCCCn1c(SCC(=O)N2CCOCC2)nc2ccccc2c1=O | > 54.2
O=C(Nc1cccc(F)c1)Nc1c[nH]c(=O)[nH]c1=O | 2.4 (≈ 9.08 µM)
Cc1nc(NC(=O)CSc2nc(N)cc(N)n2)sc1C | > 46.6
Cc1cc(=O)[nH]c(SCC(=O)N2CCCCC2)n1 | > 40.1
CC(=O)c1c(C)[nH]c(C(=O)NCc2cccc(Cl)c2)c1C | 18.9 (≈ 62 µM)
COc1cccc(CN2CCN(Cc3cccc(F)c3)CC2)c1.O=C(O)C(=O)O | 46.5
Cc1nc2cc(NC(=O)c3ccco3)ccc2n1C | 38.2 (≈ 150 µM)
CC(C)/C(C=O)=C(/NC1CCCCC1)c1ccccc1 | 0.9 (≈ 3.32 µM)
O=C1CNC(=S)N1CCCc1ccccc1 | > 35.1
Nc1cc(=O)[nH]c(SCC(=O)Nc2ccc(N3CCCCC3)cc2)n1 | 4.8 (≈ 13.4 µM)

Structure (SMILES) | solubility kinetic [µg/mL]
CCOC(=O)c1nc(Nc2ccccc2CC)c2ccccc2n1 | > 48.2
COc1cccc(OC)c1OC(=O)C1CC(=O)N(c2ccc3c(c2)OCCO3)C1 (stereo unspecified) | > 59.9
CCCc1nnc(SCC(=O)NC2CC2)n1CC | > 40.3
S=C(c1ccc(Br)cc1)N1CCCC1 | > 40.5
O=C(NCc1ccc(Cl)cc1Cl)Nc1ccccc1 | 0.4 (≈ 1.36 µM)
CCOCCc1c(O)nc(SCC)[nH]c1=O | > 36.6
Cc1cc(C)nc(Nc2cccc(C(F)(F)F)c2)n1.Cl | 1.8
O=c1cc[nH]c2ccc([N+](=O)[O-])cc12 | > 28.5
CN1C2CCC1CC(NC(=O)CSc1ccc(Cl)cc1)C2 (stereo unspecified) | > 48.7
COCc1cc(=O)[nH]c2c1c(-c1ccccc1)nn2C | > 40.4
COc1cc(C)cc(OC)c1OCC(=O)Nc1cc(C)on1 | 6.4 (≈ 20.9 µM)
CCc1nc2ccccc2n1CC1CC1(Cl)Cl (stereo unspecified) | 34.9 (≈ 130 µM)
O=C(COc1ccc2c(c1)OCO2)Nc1nccs1 | 20.9 (≈ 75.1 µM)
O=C(O)CN1C(=O)/C(=C/c2cccc(Cl)c2)Oc2ccccc21 | 30.8 (≈ 93.4 µM)
Cc1cc(=O)oc(C)c1C(=O)NC1CCCCCCC1 | 11.8 (≈ 42.5 µM)
Cc1cc(C)cc(C(=O)N(C)C2CCCN(Cc3ccccc3F)C2)c1 (stereo unspecified) | > 53.2
CC(=O)NCCc1nc2ccccc2n1CCOc1cccc(C)c1 | > 50.6
COc1ccc(C)cc1S(=O)(=O)NC(C)C(=O)NC1CC1 (stereo unspecified) | > 46.9
CC(=NCCCn1ccnc1)c1c(O)n(-c2ccccc2)c(=O)[nH]c1=O | > 53
Cc1cc(C(=O)NC(C)C2CCCO2)c(C)o1 (stereo unspecified) | > 35.6
CC(C)OC(=O)/C(C#N)=C/c1cn(C)c2ccccc12 | 3.9 (≈ 14.5 µM)
